Read-outs that look alike come from different tables or passages of the source.
Key:
Assay type in all cases: cell-based
hPBMCs = assay: Lymphocyte proliferation assay (T-cell proliferation of normal hPBMCs); settings: Homo sapiens, tritiated thymidine
From the text: The assay method was designed as in references, The Journal of Immunology, 153, 1-9, (1994), and Clinical and Diagnostic Laboratory Immunology, 7, 687-692, (2000), the disclosure of which is incorporated by reference for the teaching of the assay.
hPBMCs were obtained from healthy donors by centrifugation of heparinized venous blood over Ficoll/Hypaque solution (Histopaque-1077, Sigma, USA). Isolated hPBMCs were suspended in RPMI 1640 culture medium supplemented with 10% FBS and seeded at a density of 50,000 cells/well in a 96-well plate (Nunc, USA). The cells were incubated at 37° C., 5% CO2 for a period of 24 h. These cells were used for the lymphocyte proliferation as well as cytokine release assay.
The plated cells were treated with different concentrations of the test compound (prepared as 20 mM stock in DMSO and diluted with DMSO to achieve the following final concentrations in the assay: 100, 10, 1, 0.1, 0.01, 0.001 and 0.0001 μM) and were incubated for 30 min. The cells were then stimulated with 5 ng/mL PMA (Sigma, USA, prepared as 100 μg/mL stock in RPMI and was diluted to 5 ng/mL) and 5 μg/mL PHA (Sigma, USA, prepared as a 1 mg/mL stock in RPMI). The plates were incubated at 37° C., 5% CO2 for 48 h. The cells were treated overnight with 0.1 μCi of tritiated thymidine per well (obtained from BARC, India; prepared as stock of 1 mCi/mL) and was diluted in KRPH buffer to 10 μCi/mL and […] and was added per well to obtain a final concentration 0.1 μCi/well) and at the end of 48 h, the anti-proliferative effect of the compound was measured using the following formula: […]
Controls consisted of hPBMCs with PHA and PMA (Stimulated), hPBMCs with RPMI (Un-stimulated), hPBMCs with FK506 (positive control, Sigma, USA, prepared as 20 mM stock in DMSO and diluted with DMSO to achieve the following final concentrations in the assay: 100, 10, 1, 0.1, 0.01, 0.001 and 0.0001 μM).

TNF-α [1] = assay: Human monocyte assay (LPS-induced): TNF-α; settings: LPS stimulated human monocytes, 5 h
From the text: (§1) The assay was designed as in reference, Physiological Research, 52, 593-598, (2003), the disclosure of which is incorporated by reference for the teaching of the assay.
(§2) The objective of the assay is to determine whether compounds of the present invention—mediated inhibition of LPS-induced cytokines from monocytic THP-1 cell line translates to physiologically relevant human cells. Accordingly, the effect of compounds of the present invention on LPS—induced cytokine production from freshly isolated human monocytes was ascertained.
Peripheral blood was collected from healthy donors into potassium EDTA vacutainer tubes (BD Biosciences, USA). hPBMCs were isolated using density gradient separation (Histopaque-1077; Sigma, USA) and suspended in assay medium which is RPMI culture medium (Sigma, USA) containing 10% heat inactivated FBS (JRH Biosciences, Australia), 100 U/mL penicillin (Sigma, USA) and […] streptomycin (Sigma, USA). Monocytes in the hPBMCs were counted using a Coulter Counter following which the cells were resuspended at 2×10^5 monocytes/mL of assay medium. A cell suspension containing 2×10^4 monocytes was aliquoted per well of a 96-well plate (Nunc, USA). Subsequently, the hPBMCs were incubated for 4-5 h at 37° C., 5% CO2. […] The IC50 values were calculated by a nonlinear regression method using Graph Pad software (Prism 3.03).

IL-6 [2] = assay: Human monocyte assay (LPS-induced): IL-6; settings: LPS stimulated human monocytes, 5 h
From the text: as §1, §2
Peripheral blood was collected from healthy donors into potassium EDTA vacutainer tubes (BD Biosciences, USA). hPBMCs were isolated using density gradient separation (Histopaque-1077; Sigma, USA) and suspended in assay medium which is RPMI culture medium (Sigma, USA) containing 10% heat inactivated FBS (JRH Biosciences, Australia), 100 U/mL penicillin (Sigma, USA) and […] streptomycin (Sigma, USA). Monocytes in the hPBMCs were counted using a Coulter Counter following which the cells were resuspended at 2×10^5 monocytes/mL of assay medium. A cell suspension containing 2×10^4 monocytes was aliquoted per well of a 96-well plate (Nunc, USA). Subsequently, the hPBMCs were incubated for 4-5 h at 37° C., 5% CO2. During the incubation, the monocytes adhered to the bottom of 96-well plate. Following the incubation, the non-adherent lymphocytes were washed and assay medium was added to adherent monocytes. After 48 h of incubation at 37° C., 5% CO2, monocytes were pre-treated with various concentrations of test compound (prepared as 20 mM stock in DMSO; 1 μL of […] concentrated solution of test compound was dissolved in 200 μL cell suspension to achieve a final concentration of 0.03, 0.1, 0.3, 1, 3, 10, 30 and 100 μM) or vehicle (0.5% DMSO) or 10 μM dexamethasone (standard IL-6 and TNF-α inhibitor, Sigma, USA) for 30 min at 37° C., 5% CO2 and stimulated with 1 μg/mL LPS (Escherchia coli 0111:B4, Sigma, USA). The cells were then incubated for 5 h at 37° C., 5% CO2 following which supernatants were collected, stored at −70° C. and were assayed later for IL-6, and TNF-α by ELISA (OptiEIA ELISA sets, BD Biosciences, USA). The IC50 values were calculated by a nonlinear regression method using Graph Pad software (Prism 3.03).

TNF-α [3] = assay: Screening in LPS stimulated THP-1 cells: TNF-α; settings: Homo sapiens, 24 h, ELISA
Protocol: (§3) IL-6 (BD Biosciences, USA) production by LPS (Escherchia coli 0127:B8, Sigma, USA) in THP-1 cells (ATCC number: TIB202) was designed as in reference, Journal of Immunology, 151, 5631-5638, (1993), the disclosure of which is incorporated by reference for the teaching of the assay.
(§4) THP-1 cells were cultured in RPMI 1640 culture medium (Gibco BRL, UK) containing 100 U/mL penicillin and […] streptomycin, (100× solution, Sigma, USA) containing 10% FBS (JRH Biosciences, USA). 25,000 cells were seeded per well in 96-well plate (Nunc, USA). The cells were differentiated with PMA (Sigma, USA, prepared as 100 μg/mL stock in RPMI and was diluted to 5 ng/mL). The test compound (prepared as 20 mM stock in DMSO and diluted with DMSO to achieve the following final concentrations in the assay: 100, 10, 1, 0.1, 0.01, 0.001 and 0.0001 μM) or vehicle (0.5% DMSO) were added to the cells and the cells were incubated for 30 min at 37° C. LPS (Sigma, USA, prepared as 1 mg/mL stock in PBS) was added to achieve a final concentration of 1 μg/mL. Plates were incubated at 37° C. for 24 h at 5% CO2. Supernatants were harvested, and assayed for TNF-α and IL-6 by ELISA as described by the manufacturer (BD Biosciences, USA). Percent inhibition of cytokine release compared to the control was calculated. The IC50 values were calculated by a nonlinear regression method.

IL-6 [4] = assay: Screening in LPS stimulated THP-1 cells: IL-6; settings: Homo sapiens, 24 h, ELISA
Protocol: as §3, §4

Compound	IC50 (hPBMCs; hPBMCs stimulated with PMA and PHA, read-out: Stimulated hPBMC's IC50 (inhibition of cell proliferation)) [nM]	IC50 (hPBMCs; unstimulated hPBMCs, read-out: Unstimulated hPBMC's IC50 (inhibition of cell proliferation)) [nM]	IC50 (TNF-α [1]) [nM]	IC50 (IL-6 [2]) [nM]	IC50 (TNF-α [3]) [nM]	IC50 (IL-6 [4]) [nM]
C=CC[C@@H]1/C=C(\C)C[C@H](C)C[C@H](OC)[C@H]2O[C@@](O)(C(=O)C(=O)N3CCCC[C@H]3C(=O)O[C@H](/C(C)=C/[C@@H]3CC[C@@H](O)[C@H](OC)C3)[C@H](C)[C@@H](O)CC1=O)[C@H](C)C[C@@H]2OC [FK506, reference compound]	< 1	2000				
C/C=C/C(O)C(C)/C=C/C(=O)C(C)C(O)C(C)C1OC(=O)/C(OC)=C/C(C)=C/C(C)C(O)C(CC)C(O)C(C)C/C(C)=C/C=C/C1OC (stereo not drawn) [Compound of example 6, (3Z,5E,13E,15E)-18-((6E,10E)-3,9-Dihydroxy-4,8-dimethyl-5-oxododeca-6,10-dien-2-yl)-9-ethyl-8,10-dihydroxy-3,17-dimethoxy-5,7,11,13-tetramethyloxacyclooctadeca-3,5,13,15-tetraen-2-one]			5000	600	> 100000	100
